These compounds were tested on test plant species (assay: Post-emergent herbicidal activity test (greenhouse, foliar spray, visual growth reduction)). Conditions: post-emergence, 336 h, ALOMY: blackgrass (Alopecurus myosuroides), 140 g ai/ha, 14 days after application, read-out: Visual Growth Reduction (%) 14 Days After Application, ALOMY.
Assay type: in vivo
In short: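 Greenhouse plants at first–second true leaf stage sprayed overhead at 187 L/ha with compound in acetone/water/isopropanol/DMSO/crop oil/X-77 carrier; controls received solvent blank. Injury rated visually after 14 d on a 0–100% scale versus untreated and control plants, converted to growth reduction.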
COC(=O)c1nc(-c2ccc(C)cc2Cl)ccc1Cl [F60, Methyl 3-chloro-6-(2-chloro-4-methylphenyl) picolinate] was tested, and the pest or weed control at 140 g/ha was 0 to 29%. With COC(=O)c1nc(-c2ccc(OCC(F)(F)F)cc2)c(F)cc1Cl [F163, Methyl 3-chloro-5-fluoro-6-(4-(2,2,2-trifluoroethoxy)phenyl) picolinate] the pest or weed control at 140 g/ha was 0 to 29%. COC(=O)c1nc(-c2cc(F)c(Cl)cc2Cl)ccc1Cl [F65, Methyl 3-chloro-6-(2,4-dichloro-5-fluorophenyl) picolinate] was tested, and the pest or weed control at 140 g/ha was 0 to 29%.

Same assay, conditions: post-emergence, 336 h, AMARE: redroot pigweed (Amaranthus retroflexus), 140 g ai/ha, 14 days after application, read-out: Visual Growth Reduction (%) 14 Days After Application, AMARE
With COC(=O)c1nc(-c2ccc(C)cc2Cl)ccc1Cl [F60, Methyl 3-chloro-6-(2-chloro-4-methylphenyl) picolinate] the pest or weed control at 140 g/ha was 60 to 74%. Work on COC(=O)c1nc(-c2ccc(OCC(F)(F)F)cc2)c(F)cc1Cl [F163, Methyl 3-chloro-5-fluoro-6-(4-(2,2,2-trifluoroethoxy)phenyl) picolinate] yielded a pest or weed control at 140 g/ha of 30 to 44%. COC(=O)c1nc(-c2cc(F)c(Cl)cc2Cl)ccc1Cl [F65, Methyl 3-chloro-6-(2,4-dichloro-5-fluorophenyl) picolinate] showed a pest or weed control at 140 g/ha of 95 to 100%.

Same assay, conditions: post-emergence, 336 h, AVEFA: wild oat (Avena fatua), 140 g ai/ha, 14 days after application, read-out: Visual Growth Reduction (%) 14 Days After Application, AVEFA
For COC(=O)c1nc(-c2ccc(C)cc2Cl)ccc1Cl [F60, Methyl 3-chloro-6-(2-chloro-4-methylphenyl) picolinate], the pest or weed control at 140 g/ha was 0 to 29%. In the case of COC(=O)c1nc(-c2ccc(OCC(F)(F)F)cc2)c(F)cc1Cl [F163, Methyl 3-chloro-5-fluoro-6-(4-(2,2,2-trifluoroethoxy)phenyl) picolinate], the pest or weed control at 140 g/ha is reported as 0 to 29%. For COC(=O)c1nc(-c2cc(F)c(Cl)cc2Cl)ccc1Cl [F65, Methyl 3-chloro-6-(2,4-dichloro-5-fluorophenyl) picolinate], the pest or weed control at 140 g/ha was 0 to 29%.

Same assay, conditions: post-emergence, 336 h, CHEAL: lambsquarters (Chenopodium album), 140 g ai/ha, 14 days after application, read-out: Visual Growth Reduction (%) 14 Days After Application, CHEAL
With COC(=O)c1nc(-c2ccc(C)cc2Cl)ccc1Cl [F60, Methyl 3-chloro-6-(2-chloro-4-methylphenyl) picolinate] the pest or weed control at 140 g/ha was 0 to 29%. COC(=O)c1nc(-c2ccc(OCC(F)(F)F)cc2)c(F)cc1Cl [F163, Methyl 3-chloro-5-fluoro-6-(4-(2,2,2-trifluoroethoxy)phenyl) picolinate] showed a pest or weed control at 140 g/ha of 45 to 59%. COC(=O)c1nc(-c2cc(F)c(Cl)cc2Cl)ccc1Cl [F65, Methyl 3-chloro-6-(2,4-dichloro-5-fluorophenyl) picolinate] gave a pest or weed control at 140 g/ha of 60 to 74%.

Same assay, conditions: post-emergence, 336 h, CIRAR: canada thistle (Cirsium arvense), 140 g ai/ha, 14 days after application, read-out: Visual Growth Reduction (%) 14 Days After Application, CIRAR
COC(=O)c1nc(-c2ccc(C)cc2Cl)ccc1Cl [F60, Methyl 3-chloro-6-(2-chloro-4-methylphenyl) picolinate] showed a pest or weed control at 140 g/ha of 0 to 29%. For COC(=O)c1nc(-c2ccc(OCC(F)(F)F)cc2)c(F)cc1Cl [F163, Methyl 3-chloro-5-fluoro-6-(4-(2,2,2-trifluoroethoxy)phenyl) picolinate], the pest or weed control at 140 g/ha was 0 to 29%. In the case of COC(=O)c1nc(-c2cc(F)c(Cl)cc2Cl)ccc1Cl [F65, Methyl 3-chloro-6-(2,4-dichloro-5-fluorophenyl) picolinate], the pest or weed control at 140 g/ha is reported as 85 to 94%.

Same assay, conditions: post-emergence, 336 h, CYPES: yellow nutsedge (Cyperus esculentus), 140 g ai/ha, 14 days after application, read-out: Visual Growth Reduction (%) 14 Days After Application, CYPES
In the case of COC(=O)c1nc(-c2ccc(C)cc2Cl)ccc1Cl [F60, Methyl 3-chloro-6-(2-chloro-4-methylphenyl) picolinate], the pest or weed control at 140 g/ha is reported as 0 to 29%. With COC(=O)c1nc(-c2ccc(OCC(F)(F)F)cc2)c(F)cc1Cl [F163, Methyl 3-chloro-5-fluoro-6-(4-(2,2,2-trifluoroethoxy)phenyl) picolinate] the pest or weed control at 140 g/ha was 0 to 29%. With COC(=O)c1nc(-c2cc(F)c(Cl)cc2Cl)ccc1Cl [F65, Methyl 3-chloro-6-(2,4-dichloro-5-fluorophenyl) picolinate] the pest or weed control at 140 g/ha was 0 to 29%.

Same assay, conditions: post-emergence, 336 h, DIGSA: crabgrass (Digitaria sanguinalis), 140 g ai/ha, 14 days after application, read-out: Visual Growth Reduction (%) 14 Days After Application, DIGSA
Work on COC(=O)c1nc(-c2ccc(C)cc2Cl)ccc1Cl [F60, Methyl 3-chloro-6-(2-chloro-4-methylphenyl) picolinate] yielded a pest or weed control at 140 g/ha of 0 to 29%. Compound COC(=O)c1nc(-c2ccc(OCC(F)(F)F)cc2)c(F)cc1Cl [F163, Methyl 3-chloro-5-fluoro-6-(4-(2,2,2-trifluoroethoxy)phenyl) picolinate] has a pest or weed control at 140 g/ha of 0 to 29%. With COC(=O)c1nc(-c2cc(F)c(Cl)cc2Cl)ccc1Cl [F65, Methyl 3-chloro-6-(2,4-dichloro-5-fluorophenyl) picolinate] the pest or weed control at 140 g/ha was 95 to 100%.

Same assay, conditions: post-emergence, 336 h, ECHCG: barnyardgrass (Echinochloa crus-galli), 140 g ai/ha, 14 days after application, read-out: Visual Growth Reduction (%) 14 Days After Application, ECHCG
COC(=O)c1nc(-c2ccc(C)cc2Cl)ccc1Cl [F60, Methyl 3-chloro-6-(2-chloro-4-methylphenyl) picolinate] gave a pest or weed control at 140 g/ha of 0 to 29%. In the case of COC(=O)c1nc(-c2ccc(OCC(F)(F)F)cc2)c(F)cc1Cl [F163, Methyl 3-chloro-5-fluoro-6-(4-(2,2,2-trifluoroethoxy)phenyl) picolinate], the pest or weed control at 140 g/ha is reported as 0 to 29%. Compound COC(=O)c1nc(-c2cc(F)c(Cl)cc2Cl)ccc1Cl [F65, Methyl 3-chloro-6-(2,4-dichloro-5-fluorophenyl) picolinate] has a pest or weed control at 140 g/ha of 60 to 74%.

Same assay, conditions: post-emergence, 336 h, IPOHE: ivy-leaf morning glory (Ipomoea hederacea), 140 g ai/ha, 14 days after application, read-out: Visual Growth Reduction (%) 14 Days After Application, IPOHE
With COC(=O)c1nc(-c2ccc(C)cc2Cl)ccc1Cl [F60, Methyl 3-chloro-6-(2-chloro-4-methylphenyl) picolinate] the pest or weed control at 140 g/ha was 45 to 59%. COC(=O)c1nc(-c2ccc(OCC(F)(F)F)cc2)c(F)cc1Cl [F163, Methyl 3-chloro-5-fluoro-6-(4-(2,2,2-trifluoroethoxy)phenyl) picolinate] gave a pest or weed control at 140 g/ha of 45 to 59%. Work on COC(=O)c1nc(-c2cc(F)c(Cl)cc2Cl)ccc1Cl [F65, Methyl 3-chloro-6-(2,4-dichloro-5-fluorophenyl) picolinate] yielded a pest or weed control at 140 g/ha of 95 to 100%.

Same assay, conditions: post-emergence, 336 h, KCHSC: kochia (Bassia scoparia), 140 g ai/ha, 14 days after application, read-out: Visual Growth Reduction (%) 14 Days After Application, KCHSC
With COC(=O)c1nc(-c2ccc(C)cc2Cl)ccc1Cl [F60, Methyl 3-chloro-6-(2-chloro-4-methylphenyl) picolinate] the pest or weed control at 140 g/ha was 0 to 29%. COC(=O)c1nc(-c2ccc(OCC(F)(F)F)cc2)c(F)cc1Cl [F163, Methyl 3-chloro-5-fluoro-6-(4-(2,2,2-trifluoroethoxy)phenyl) picolinate] gave a pest or weed control at 140 g/ha of 0 to 29%. Work on COC(=O)c1nc(-c2cc(F)c(Cl)cc2Cl)ccc1Cl [F65, Methyl 3-chloro-6-(2,4-dichloro-5-fluorophenyl) picolinate] yielded a pest or weed control at 140 g/ha of 0 to 29%.

Same assay, conditions: post-emergence, 336 h, ORYSA: rice (Oryza sativa), 140 g ai/ha, 14 days after application, read-out: Visual Growth Reduction (%) 14 Days After Application, ORYSA
Work on COC(=O)c1nc(-c2ccc(OCC(F)(F)F)cc2)c(F)cc1Cl [F163, Methyl 3-chloro-5-fluoro-6-(4-(2,2,2-trifluoroethoxy)phenyl) picolinate] yielded a pest or weed control at 140 g/ha of 0 to 29%. Compound COC(=O)c1nc(-c2cc(F)c(Cl)cc2Cl)ccc1Cl [F65, Methyl 3-chloro-6-(2,4-dichloro-5-fluorophenyl) picolinate] has a pest or weed control at 140 g/ha of 30 to 44%.

Same assay, conditions: post-emergence, 336 h, SETFA: giant foxtail (Setaria faberi), 140 g ai/ha, 14 days after application, read-out: Visual Growth Reduction (%) 14 Days After Application, SETFA
COC(=O)c1nc(-c2ccc(C)cc2Cl)ccc1Cl [F60, Methyl 3-chloro-6-(2-chloro-4-methylphenyl) picolinate] was tested, and the pest or weed control at 140 g/ha was 0 to 29%. Compound COC(=O)c1nc(-c2ccc(OCC(F)(F)F)cc2)c(F)cc1Cl [F163, Methyl 3-chloro-5-fluoro-6-(4-(2,2,2-trifluoroethoxy)phenyl) picolinate] has a pest or weed control at 140 g/ha of 0 to 29%. COC(=O)c1nc(-c2cc(F)c(Cl)cc2Cl)ccc1Cl [F65, Methyl 3-chloro-6-(2,4-dichloro-5-fluorophenyl) picolinate] showed a pest or weed control at 140 g/ha of 85 to 94%.

Same assay, conditions: post-emergence, 336 h, SORVU: grain sorghum (Sorghum vulgare), 140 g ai/ha, 14 days after application, read-out: Visual Growth Reduction (%) 14 Days After Application, SORVU
For COC(=O)c1nc(-c2ccc(C)cc2Cl)ccc1Cl [F60, Methyl 3-chloro-6-(2-chloro-4-methylphenyl) picolinate], the pest or weed control at 140 g/ha was 0 to 29%. In the case of COC(=O)c1nc(-c2ccc(OCC(F)(F)F)cc2)c(F)cc1Cl [F163, Methyl 3-chloro-5-fluoro-6-(4-(2,2,2-trifluoroethoxy)phenyl) picolinate], the pest or weed control at 140 g/ha is reported as 0 to 29%. COC(=O)c1nc(-c2cc(F)c(Cl)cc2Cl)ccc1Cl [F65, Methyl 3-chloro-6-(2,4-dichloro-5-fluorophenyl) picolinate] was tested, and the pest or weed control at 140 g/ha was 60 to 74%.

Same assay, conditions: post-emergence, 336 h, STEME: common chickweed (Stellaria media), 140 g ai/ha, 14 days after application, read-out: Visual Growth Reduction (%) 14 Days After Application, STEME
COC(=O)c1nc(-c2ccc(C)cc2Cl)ccc1Cl [F60, Methyl 3-chloro-6-(2-chloro-4-methylphenyl) picolinate] gave a pest or weed control at 140 g/ha of 0 to 29%. For COC(=O)c1nc(-c2ccc(OCC(F)(F)F)cc2)c(F)cc1Cl [F163, Methyl 3-chloro-5-fluoro-6-(4-(2,2,2-trifluoroethoxy)phenyl) picolinate], the pest or weed control at 140 g/ha was 0 to 29%. Compound COC(=O)c1nc(-c2cc(F)c(Cl)cc2Cl)ccc1Cl [F65, Methyl 3-chloro-6-(2,4-dichloro-5-fluorophenyl) picolinate] has a pest or weed control at 140 g/ha of 0 to 29%.

Same assay, conditions: post-emergence, 336 h, TRZAS: wheat, spring (Triticum aestivum), 140 g ai/ha, 14 days after application, read-out: Visual Growth Reduction (%) 14 Days After Application, TRZAS
With COC(=O)c1nc(-c2ccc(OCC(F)(F)F)cc2)c(F)cc1Cl [F163, Methyl 3-chloro-5-fluoro-6-(4-(2,2,2-trifluoroethoxy)phenyl) picolinate] the pest or weed control at 140 g/ha was 0 to 29%.
